“Also recorded” adds a separate entry of the source.
Legend:
human lymphoma lines = assay: Proliferation of human lymphoma lines (FIG. 5); assay type: cell-based; details: 1-100 μM, 24 hours, various human lymphoma lines
Protocol: (§1) Cell Counting. A volume of cells was removed from culture medium and mixed with an equal volume of 0.4% Trypan blue stain. Then, 10 μL were taken out and placed into a hemocytometer for cell counting. Viable cell counts were used as a measure of cell proliferation.
(§2) All RCC cell lines were maintained in Dulbecco's Modified Eagle Medium (DMEM) supplemented with 10% fetal bovine serum (FBS), 1% L-glutamine, 1% sodium pyruvate, 1% nonessential amino acids, and Antibiotic-Antimycotic. All lymphoma lines were maintained in RPMI 1640 medium supplemented with 10% FBS, 50 μM β-mercaptoethanol, and […]

mouse-derived T-ALL line = assay: Response in mouse-derived T-ALL line at high, low or no MYC (FIG. 6); assay type: cell-based; details: 1-100 μM; MYC levels controlled by doxycycline-off system
Protocol: as §1, §2

[1] = system: mouse-derived MYC-induced RCC E28 line; assay: RCC E28 proliferation / cell viability (FIG. 7, 10B, 12B); assay type: cell-based
Protocol: as §1, §2

[2] = system: mouse derived MYC-induced HCC EC4 line; assay: HCC EC4 proliferation / cell viability (FIG. 8, 9, 12A); assay type: cell-based; details: for cell viability as compared to FSG67: HCC EC4, 1-100 μM dose, two days (48 hours) post treatment
Protocol: as §1

fatty acids and PGs = assay: Lipid profile after TOFA or FSG67 (FIG. 11); design: species or system mouse
Protocol: DESI-MSI was used for generating two-dimensional chemical maps of 16 μm-thick tissue sections in order to assess the lipid profiles of tissue. The tissue samples were snap-frozen in liquid nitrogen and stored at −80° C. before processing. The frozen samples were cut into 16 μm sections at −21° C. using a cryomicrotome and thaw-mounted onto microscope slides. The slides were stored at −80° C. Prior to analysis, the slides were dried under a vacuum in a desiccator for approximately 20 minutes. A laboratory-built DESI-MSI source coupled to an LTQ-Orbitrap-XL mass spectrometer (Thermo Fisher Scientific) was utilized, and DESI-MSI was performed in the negative ion mode at m/z 90-1,000 with a spatial resolution of 200 μm (FIG. S1). The Orbitrap was used as the mass analyzer while set to 60,000 resolving power. Mouse tissue samples were imaged by this method using dimethylformamide and acetonitrile (1:1) as a solvent system at a flow rate of 0.5 μL/min. The N2 pressure was set to 175 psi. In DESI-MSI, charged solvents are sprayed onto the tissue, resulting in molecules, such as metabolites and lipids, to be dissolved and extracted from the tissue surface, then transferred into a mass spectrometer for measurement of the mass-to-charge (m/z) ratios. The software ImgGenerator (freeware, www.msimaging.net/) was used for converting raw files into 2D images. Spatially accurate ion images were assembled using BioMap software (freeware, www.maldi-msi.org/). After DESI-MSI, the same tissue section was subjected to a standard H&E staining for histopathologic evaluation using light microscopy. DESI-MS ion images were compared with optical microscopy images of the same-tissue H&E-stained tissue sections for delineation of tumor foci. Tandem MS analyses were performed using both the Orbitrap and the linear ion trap for mass analysis to confirm lipid identity. The LipidMaps database (www.lipidmaps.org/) was also used to assist in lipid identification.

MYC-induced tumors = MYC-induced tumors in xenograft and primary mouse models; assay type: in vivo
Description: A Tet system was used to conditionally activate MYC, in the liver, kidney, lymphocyte, and lung tissue of transgenic mice. In this system, […] In the absence of tetracycline, transcription of the oncogene is activated. Oncogene expression was activated in mice by removal of doxycycline (a stable analog of tetracycline) in the mice's drinking water. All animal studies were approved by the Stanford University Administrative Panel on Laboratory Animal Care (APLAC).

[3] = molecular target: glycerol 3-phosphate acyltransferase (GPAT); details: inhibitor of GPAT; cited from earlier work
diet-induced obese mice = details: cited from earlier work
[4] = system: human MYC-induced Burkitt's Lymphoma line P493; assay: BCL P493 cell viability (FIG. 10A, 12C); assay type: cell-based; details: BCL P493, 1-100 μM dose, five days post treatment
Protocol: as §1, §2

CCCCCCCCCS(=O)(=O)Nc1ccccc1C(=O)O [FSG67, 2-(Nonylsulfonamido) benzoic acid]
cell proliferation (human lymphoma lines): suppresses cell proliferation | therapeutic response, high MYC vs. low or no MYC (mouse-derived T-ALL line): induces therapeutic response in high MYC (no dox) vs. low or no MYC; also recorded: induced a therapeutic response in high MYC (no dox) | RCC E28 proliferation ([1]; 1-100 μM): suppresses RCC E28 proliferation | HCC EC4 proliferation ([2]; 1-100 μM): suppresses HCC EC4 proliferation | depletion of lipids (fatty acids, PGs) (fatty acids and PGs): depletes only PGs | levels of fatty acids upstream of GPAT (oleate) (fatty acids and PGs): not perturbing levels of fatty acids that are upstream of GPAT | MYC-induced tumorigenesis (MYC-induced tumors): MYC-induced tumorigenesis was blocked | metabolic changes (MYC-induced tumors): metabolic changes were suppressed | tumor regression (MYC-induced tumors): tumors regressed | IC50 [3]: 24 µM | body weight and adiposity (diet-induced obese mice): decrease body weight and adiposity | energy utilization as fatty acid oxidation (diet-induced obese mice): enhance energy utilization as fatty acid oxidation | food intake (diet-induced obese mice): reduce food intake | hepatic steatosis (diet-induced obese mice): reverse hepatic steatosis | insulin sensitivity (diet-induced obese mice): enhance insulin sensitivity

[2H]c1c([2H])c([2H])c(C(=O)O)c(NS(=O)(=O)CCCCCCCCC)c1[2H] [GFZ1.1]
cell viability as compared to FSG67 [2]: significant difference in cell viability

[2H]C([2H])([2H])C([2H])([2H])C([2H])([2H])C([2H])([2H])C([2H])([2H])C([2H])([2H])C([2H])([2H])C([2H])([2H])C([2H])([2H])S(=O)(=O)Nc1ccccc1C(=O)OC [GFZ1.2]
cell viability as compared to FSG67 [2]: significant difference in cell viability

CCCCCCCCCCCCCCOc1ccc(C(=O)O)o1 [TOFA]
depletion of lipids (fatty acids, PGs) (fatty acids and PGs): depletes all fatty acids

CCCCCCCCCS(=O)(=O)Nc1ccccc1C(=O)OC [GFZ1.5]
cell viability as compared to FSG67 ([1]; RCC E28, 1-100 μM dose, two days (48 hours) post treatment): significant difference in cell viability | cell viability as compared to FSG67 [2]: significant difference in cell viability | cell viability as compared to FSG67 [4]: significant difference in cell viability

Reference: patent publication US11702394B2, “Inhibitors of phospholipid synthesis and methods of use” (The Board of Trustees of the Leland Stanford Junior …, priority 2018, dated 2023)
